Measured values from article PMC2955773 (ACS chemical biology, 2010).
Where two headings read alike, the source gives them in different places.

Experiments:
[1] = test system: mitochondrial ROS generation in DLD1; assay: Mitochondrial ROS generation by MitoSox dye; assay type: cell-based, human; conditions: compared to DMSO
Nox2 [2] = molecular target: T1, Nox2 (Homo sapiens, UniProt P04839); assay: Nox2 cell-free system; assay type: biochemical; conditions: 10 μM
T1 sequence (P04839 2-570 limits assumed): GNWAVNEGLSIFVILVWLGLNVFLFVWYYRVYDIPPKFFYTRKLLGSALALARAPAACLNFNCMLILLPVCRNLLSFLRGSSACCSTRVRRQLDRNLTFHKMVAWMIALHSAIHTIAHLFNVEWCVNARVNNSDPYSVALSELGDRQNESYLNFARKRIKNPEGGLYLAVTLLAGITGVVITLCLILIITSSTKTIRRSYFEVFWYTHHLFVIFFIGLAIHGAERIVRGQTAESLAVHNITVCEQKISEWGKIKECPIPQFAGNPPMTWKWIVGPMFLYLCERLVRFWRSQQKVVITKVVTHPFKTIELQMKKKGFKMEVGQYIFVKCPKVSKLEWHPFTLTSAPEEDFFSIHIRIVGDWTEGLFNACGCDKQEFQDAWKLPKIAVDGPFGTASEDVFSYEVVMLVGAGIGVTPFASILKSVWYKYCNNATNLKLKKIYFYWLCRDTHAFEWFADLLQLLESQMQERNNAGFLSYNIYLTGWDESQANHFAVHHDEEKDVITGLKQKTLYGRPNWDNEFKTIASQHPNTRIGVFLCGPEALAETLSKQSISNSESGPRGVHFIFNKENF
T1 sequence (P13498 2-195 partner limits assumed): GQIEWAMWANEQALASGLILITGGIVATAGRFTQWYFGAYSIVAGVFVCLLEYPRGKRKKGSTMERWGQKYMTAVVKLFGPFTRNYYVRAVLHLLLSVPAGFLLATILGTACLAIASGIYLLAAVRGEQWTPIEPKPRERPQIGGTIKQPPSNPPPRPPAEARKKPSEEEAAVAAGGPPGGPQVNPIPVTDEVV

Nox2 [3] = molecular target: T1, Nox2; assay: Superoxide production in fMLP-treated human neutrophils; assay type: cell-based; conditions: 10 μM
DLD1 cells [4] = assay: ECM degradation assay; assay type: cell-based, human; conditions: SrcYF-transfected DLD1 cells, 10 μM, 1.5hrs
xanthine oxidase (XO) = xanthine oxidase (XO) (Bos taurus, UniProt P80457); assay: Xanthine oxidase specificity assay; assay type: biochemical
Chain of xanthine oxidase (XO) (P80457 2-1332): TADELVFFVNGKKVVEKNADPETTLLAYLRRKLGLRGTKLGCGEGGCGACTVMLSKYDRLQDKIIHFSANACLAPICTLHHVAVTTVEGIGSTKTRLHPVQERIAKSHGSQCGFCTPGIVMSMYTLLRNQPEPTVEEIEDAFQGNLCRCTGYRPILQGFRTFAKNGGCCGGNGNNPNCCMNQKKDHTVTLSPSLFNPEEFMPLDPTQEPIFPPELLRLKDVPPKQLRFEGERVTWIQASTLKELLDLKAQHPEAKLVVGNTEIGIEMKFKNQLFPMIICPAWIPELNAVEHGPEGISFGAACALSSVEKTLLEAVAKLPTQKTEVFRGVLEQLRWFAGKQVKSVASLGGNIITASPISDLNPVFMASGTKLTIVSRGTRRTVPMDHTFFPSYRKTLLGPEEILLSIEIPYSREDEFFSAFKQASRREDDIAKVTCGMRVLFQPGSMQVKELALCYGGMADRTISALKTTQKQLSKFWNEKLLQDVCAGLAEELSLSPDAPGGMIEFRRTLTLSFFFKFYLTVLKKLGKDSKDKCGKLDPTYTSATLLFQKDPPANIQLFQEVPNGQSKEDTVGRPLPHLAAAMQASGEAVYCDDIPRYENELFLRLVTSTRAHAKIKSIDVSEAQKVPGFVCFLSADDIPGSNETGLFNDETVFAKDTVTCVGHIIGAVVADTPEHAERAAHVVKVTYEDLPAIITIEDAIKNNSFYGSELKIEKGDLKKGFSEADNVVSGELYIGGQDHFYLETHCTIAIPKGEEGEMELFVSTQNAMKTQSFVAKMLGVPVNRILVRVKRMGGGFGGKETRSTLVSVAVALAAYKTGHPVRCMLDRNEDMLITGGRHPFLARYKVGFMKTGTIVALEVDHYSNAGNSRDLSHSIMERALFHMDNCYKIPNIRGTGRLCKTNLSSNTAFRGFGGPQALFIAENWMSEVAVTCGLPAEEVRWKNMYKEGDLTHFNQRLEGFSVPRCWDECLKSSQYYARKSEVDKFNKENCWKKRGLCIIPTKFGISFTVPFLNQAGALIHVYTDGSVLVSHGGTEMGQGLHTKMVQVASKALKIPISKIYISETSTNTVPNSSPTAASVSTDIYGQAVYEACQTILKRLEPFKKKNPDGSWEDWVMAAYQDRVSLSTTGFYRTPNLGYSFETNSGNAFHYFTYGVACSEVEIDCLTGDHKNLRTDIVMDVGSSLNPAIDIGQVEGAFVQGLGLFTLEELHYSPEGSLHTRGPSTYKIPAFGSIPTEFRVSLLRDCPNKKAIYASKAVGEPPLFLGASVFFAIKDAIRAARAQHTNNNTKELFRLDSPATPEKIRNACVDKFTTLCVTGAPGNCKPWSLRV

ROS production = ROS production measured by carboxy-H2-DCFDA staining; assay type: cell-based; conditions: second method of ROS detection
Rac1 = Rac1 (Homo sapiens, UniProt P63000); assay: Rac loading assay; assay type: biochemical; conditions: recombinant Rac1, compared with Mg2+ positive control
[5] = molecular target: serotonin 5-HT2B receptor (Homo sapiens, UniProt P41595); assay: Competitive binding assay; parameters: species or system human or rodent
Chain of serotonin 5-HT2B receptor (P41595 whole entry): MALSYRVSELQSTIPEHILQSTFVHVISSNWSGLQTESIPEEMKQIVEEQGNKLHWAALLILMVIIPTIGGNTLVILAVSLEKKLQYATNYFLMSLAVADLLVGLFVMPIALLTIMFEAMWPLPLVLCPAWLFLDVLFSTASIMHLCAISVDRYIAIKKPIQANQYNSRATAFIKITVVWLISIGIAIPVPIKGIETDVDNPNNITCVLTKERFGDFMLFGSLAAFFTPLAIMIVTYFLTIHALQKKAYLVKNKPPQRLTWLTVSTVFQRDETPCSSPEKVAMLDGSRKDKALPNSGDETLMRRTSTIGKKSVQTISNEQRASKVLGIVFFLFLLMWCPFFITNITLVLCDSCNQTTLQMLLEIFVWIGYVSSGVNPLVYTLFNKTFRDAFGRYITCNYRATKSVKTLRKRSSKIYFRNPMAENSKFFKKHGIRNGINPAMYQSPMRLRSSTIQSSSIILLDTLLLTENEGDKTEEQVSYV

[6] = molecular target: T2, serotonin 5-HT2C receptor (Homo sapiens, UniProt P28335); assay: Competitive binding assay; parameters: species or system human or rodent
T2 sequence (P28335 33-458): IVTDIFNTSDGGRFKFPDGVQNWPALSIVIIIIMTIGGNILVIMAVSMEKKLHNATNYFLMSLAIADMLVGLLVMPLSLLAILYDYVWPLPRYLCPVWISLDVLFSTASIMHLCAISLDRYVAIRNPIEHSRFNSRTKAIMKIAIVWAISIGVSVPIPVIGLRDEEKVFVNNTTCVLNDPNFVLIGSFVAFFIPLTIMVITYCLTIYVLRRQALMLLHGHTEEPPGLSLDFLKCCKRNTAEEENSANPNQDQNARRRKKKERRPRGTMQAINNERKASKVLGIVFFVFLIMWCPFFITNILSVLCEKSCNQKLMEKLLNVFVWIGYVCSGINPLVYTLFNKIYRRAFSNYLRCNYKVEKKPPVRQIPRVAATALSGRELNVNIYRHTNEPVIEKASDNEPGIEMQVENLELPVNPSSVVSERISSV

[7] = molecular target: T3, adrenergic alpha2C receptor (Homo sapiens, UniProt P18825); assay: Competitive binding assay; parameters: species or system human or rodent
T3 sequence (P18825 1-462): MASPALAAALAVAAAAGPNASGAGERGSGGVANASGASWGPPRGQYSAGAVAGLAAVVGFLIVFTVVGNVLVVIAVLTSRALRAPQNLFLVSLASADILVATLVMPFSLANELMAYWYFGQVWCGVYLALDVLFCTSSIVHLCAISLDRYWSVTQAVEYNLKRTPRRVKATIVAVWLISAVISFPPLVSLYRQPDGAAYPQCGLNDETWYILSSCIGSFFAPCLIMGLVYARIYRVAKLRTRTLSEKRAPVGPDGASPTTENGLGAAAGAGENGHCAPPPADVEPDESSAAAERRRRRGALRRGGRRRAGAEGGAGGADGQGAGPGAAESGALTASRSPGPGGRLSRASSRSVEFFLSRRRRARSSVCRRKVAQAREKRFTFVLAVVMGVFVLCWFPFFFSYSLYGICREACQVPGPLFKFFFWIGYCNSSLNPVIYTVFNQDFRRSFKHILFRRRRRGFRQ

[8] = test system: G-protein coupled receptors (GPCRs), channels and transporters expressed in the CNS; assay: Competitive binding to a large battery of CNS receptors; parameters: species or system human or rodent
DLD1 cells [9] = assay: SrcYF-induced invadopodia formation; assay type: cell-based, human; conditions: SrcYF-transfected DLD1 cells, treated 1hr; ML171 10 μM
Nox1 [10] = molecular target: T4, Nox1 (Homo sapiens, UniProt Q9Y5S8); assay: HEK293-Nox1 reconstituted cell system, ROS generation by CL assay; conditions: HEK293-Nox1 reconstituted cell system treated with ML171
T4 sequence (Q9Y5S8 1-564): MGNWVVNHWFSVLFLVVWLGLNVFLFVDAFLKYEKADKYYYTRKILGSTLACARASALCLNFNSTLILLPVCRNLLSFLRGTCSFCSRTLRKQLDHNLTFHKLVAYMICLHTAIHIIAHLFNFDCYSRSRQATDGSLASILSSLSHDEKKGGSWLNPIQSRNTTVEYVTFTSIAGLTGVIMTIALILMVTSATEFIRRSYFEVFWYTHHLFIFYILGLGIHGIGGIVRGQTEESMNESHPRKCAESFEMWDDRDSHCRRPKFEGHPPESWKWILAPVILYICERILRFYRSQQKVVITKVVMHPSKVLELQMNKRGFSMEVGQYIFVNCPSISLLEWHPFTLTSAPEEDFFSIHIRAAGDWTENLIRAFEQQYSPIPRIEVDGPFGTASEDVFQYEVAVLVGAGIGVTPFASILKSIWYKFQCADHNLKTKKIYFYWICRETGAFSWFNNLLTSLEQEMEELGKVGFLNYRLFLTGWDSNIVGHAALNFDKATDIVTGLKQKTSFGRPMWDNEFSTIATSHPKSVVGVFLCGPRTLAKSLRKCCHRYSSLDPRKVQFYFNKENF
T4 sequence (P13498 2-195 partner limits assumed): T1 sequence (P13498 2-195 partner limits assumed)

Nox1 [11] = molecular target: T4, Nox1; assay: Luminol-based chemiluminescence; assay type: cell-based; conditions: for ability to block Nox1-dependent ROS generation: HT29 cells, luminol-based CL assay
[12] = secondary concentration-response analysis
[13] = HT29 cell-based assay, ROS generation, SAR study
[14] = read-out: Micromolar IC50 HT29 Assay, HT29 cell-based assay, ROS generation, SAR study

c1ccc2c(c1)[I+]c1ccccc1-2 [DPI, diphenylene iodonium, reference compound]
mitochondrial ROS generation [1]: slightly reduced ROS generation in mitochondria | superoxide formation (Nox2 [2]): dramatically inhibit superoxide formation | superoxide formation (Nox2 [3]): dramatically inhibit superoxide formation | ECM degradation (DLD1 cells [4]): blocked this effect

CC(=O)c1ccc2c(c1)Nc1ccccc1S2 [ML171, 2-acetylphenothiazine]
inhibition of XO-dependent ROS generation (xanthine oxidase (XO)): unable to inhibit XO-dependent ROS generation | ROS production by carboxy-H2-DCFDA staining (ROS production): efficiently blocks ROS production | mitochondrial ROS generation [1]: did not decrease mitochondrial ROS generation | block of Rac1 loading with GTP (Rac1): only marginally block Rac1 loading | % of inhibition ([5]; primary binding assay): > 60% | Ki [5, 12]: micromolar range | % of inhibition ([6]; primary binding assay): > 60% | Ki [6, 12]: micromolar range | % of inhibition ([7]; primary binding assay): > 60% | Ki [7, 12]: micromolar range | binding to receptors of the battery [8]: did not significantly bind most of the receptors tested | invadopodia formation (DLD1 cells [9]): strongly decreased SrcYF-induced invadopodia formation | ECM degradation (DLD1 cells [4]): strongly reduced the ability of SrcYF-transfected DLD1 cells to degrade the ECM | rescue of ROS generation by over-expression of Nox1, NoxA1 or NoxO1 (Nox1 [10]): only increasing over-expression of Nox1 could rescue ROS generation

OCCN1CCN(CCCN2c3ccccc3Sc3ccc(Cl)cc32)CC1 [SR-01000000137-4]
Micromolar IC50 HT29 Assay (Nox1 [11]; [13]): Inactive (AID 2808)

CN(C)CCCN1c2ccccc2Sc2ccc(C(F)(F)F)cc21 [SR-01000000224-4, Triflupromazine, reference compound]
Micromolar IC50 HT29 Assay (Nox1 [11]; [13]): Inactive (AID 2808)

CN(C)CCCN1c2ccccc2Sc2ccccc21 [SR-01000000228-4, promazine, reference compound]
Micromolar IC50 HT29 Assay (Nox1 [11]; [13]): Inactive (AID 2808)

CN1CCN(CCCN2c3ccccc3Sc3ccc(C(F)(F)F)cc32)CC1.Cl.Cl [SR-01000003020-6]
Micromolar IC50 HT29 Assay (Nox1 [11]; [13]): Inactive (AID 2808)

Cl.Cl.OCCN1CCN(CCCN2c3ccccc3Sc3ccc(C(F)(F)F)cc32)CC1 [SR-01000003048-5, Fluorophenazine, reference compound]
Micromolar IC50 HT29 Assay (Nox1 [11]; [13]): Inactive (AID 2808)

COc1ccc2c(c1)Sc1ccccc1N2 [SR-01000025134-3]
IC50 (Nox1 [11]; [14]): 940 nM

CCOC(=O)Nc1ccc2c(c1)Nc1ccccc1S2 [SR-01000477673-3]
IC50 (Nox1 [11]; [14]): 920 nM

Clc1ccc2c(c1)Nc1ccccc1S2 [SR-01000596948-2]
IC50 (Nox1 [11]; [14]): 250 nM

c1ccc2c(c1)Nc1ccccc1S2 [SR-01000721844-3]
IC50 (Nox1 [11]; [14]): 370 nM

O=[N+]([O-])c1ccc2c(c1)Sc1ccc(C(F)(F)F)cc1N2 [SR-03000000695-1]
IC50 (Nox1 [11]; [14]): 1400 nM

COc1ccc2c(c1)Sc1ccc(Cl)cc1N2 [SR-03000000698-1]
IC50 (Nox1 [11]; [14]): 177 nM

Cc1ccc(S(=O)(=O)c2ccc3c(c2)Sc2ccc(Cl)cc2N3)cc1 [SR-03000000707-1]
IC50 (Nox1 [11]; [14]): 5300 nM

CC(O)c1ccc2c(c1)Nc1ccccc1S2 (stereo not drawn) [SR-03000000760-1]
IC50 (Nox1 [11]; [14]): 360 nM

CN(C)CCCN1c2ccccc2Sc2ccc(Cl)cc21 [chlorpromazine, reference compound]
IC50 (Nox1 [11]): > 50000 nM | Micromolar IC50 HT29 Assay (Nox1 [11]; [13]): Inactive (AID 2808) | invadopodia formation (DLD1 cells [9]): did not observe a decreased ability of DLD1 cells to form cortactin-positive, F-actin-rich invadopodia

OCCN1CCN(CCCN2c3ccccc3Sc3ccc(Cl)cc32)CC1 [perphenazine, reference compound]
ability to block Nox1-dependent ROS generation (Nox1 [11]): unable to block Nox1-dependent ROS generation

CN1CCN(CCCN2c3ccccc3Sc3ccc(C(F)(F)F)cc32)CC1 [trifluperazine, reference compound]
ability to block Nox1-dependent ROS generation (Nox1 [11]): unable to block Nox1-dependent ROS generation
